Measurements as given in US9422573B2, “Methods and means for generating microbial disease resistant plants” (VIB VZW, priority 2011, dated 2016).
Like-named read-outs stand apart in the source and are kept apart here.

How the values were obtained:
[1] = test system: A. brassicicola; assay type: cell-based, Alternaria brassicicola; conditions: for 50% growth inhibitory concentration (IC50): 48 h
Text: (§1) Next, we assessed the potential antifungal activity of At25 (ARACIN1) and At20 (ARACIN2) by an in vitro antifungal bioassay. Both propeptide and mature forms of At25 and At20 were produced by chemical synthesis (see Materials and Methods) and tested against A. brassicicola, B. cinerea B05-10 and B. cinerea Korea by means of a microtiter broth dilution assay (FIG. 9).
(§2) 11. Antifungal Activity Assay
(§3) Synthetic proAt25 peptide, mature At25 peptide, proat20 and mature At20 peptides were purchased from genscript (on the World Wide web at genscript.com). Stock solutions of 2×10^7 spores/ml of Botrytis cinerea B05-10, Botrytis cinerea Korea, Fusarium oxysporum and Alternaria brassicicola were diluted in ½ PDB (12 g/l Potato Dextrose Broth in water) to a final concentration of 2×10^4 spores/ml. After adding 196 μl aliquots of these spore dilutions to 4 μl of 2-fold dilution series of At25 in DMSO (starting from a 100 μg/ml stock solution) in microtiter plates, the plates were incubated on 23° C. for 48 h. DMSO was used as a negative control. Growth of the fungi was evaluated both microscopically and by measuring the OD600. Each fungus was tested in duplicate in the microtiter plates. Additionally, for Alternaria brassicicola this antifungal assay was repeated twice. For each assay, the average OD600 of each dilution and the DMSO control were compared using a t-test.

[2] = test system: B. cinerea B05-10; assay type: cell-based, Botrytis cinerea
Text: as §1, §2, §3

[3] = test system: B. cinerea Korea; assay type: cell-based, Botrytis cinerea; conditions: for growth inhibition: Korea
Text: as §1, §2, §3

Substance: H-GSCGAPISKYDFQVLAKRPPPCRRPRLENTEDVTHTTRP-OH (cysteine pairing not given here) [mature At20]
- 50% growth inhibitory concentration (IC50) [1]: 1.55 ± 0.11 µg/mL
- reduction of IC50 value compared with the propeptide (proAt20) ([1]; A. brassicicola, mature At20 versus proAt20): 86%
- antifungal activity in comparison with proAt20 (in words) ([2]; B. cinerea B05-10): remarkably increased
- antifungal activity in comparison with proAt20 (in words) ([3]; B. cinerea Korea): remarkably increased

Substance: H-GSCGASIAEFNSSQILAKRAPPCRRPRLQNSEDVTHTTLP-OH (cysteine pairing not given here) [mature At25]
- 50% growth inhibitory concentration (IC50) [1]: 5.46 ± 0.57 µg/mL
- concentration from which growth inhibition / statistically significant antifungal effect starts ([1]; A. brassicicola): 1 µg/mL
- growth inhibition ([2]; B05-10, 10 μg mL^−1): 95.7%
- 50% growth inhibitory concentration (IC50) ([2]; B05-10, 48 h): 3.05 ± 0.25 µg/mL
- 50% growth inhibitory concentration (IC50) ([3]; B. cinerea Korea, 48 h, 23° C., OD600): 2.03 ± 0.44 µg
- growth inhibition ([3]; 10 μg mL^−1): 94%

Substance: NH2-RRSDTGPDISTPPSGSCGASIAE FNSSQILAKRAPPCRRPRLQNSEDVTHTTLP-COOH (H-RRSDTGPDISTPPSGSCGASIAEFNSSQILAKRAPPCRRPRLQNSEDVTHTTLP-OH; cysteine pairing not given here; listed as Arabidopsis thaliana) [proAt25]
- inhibitory activity (in words) ([1]; A. brassicicola, data not shown): no statistically significant inhibitory activities
- inhibitory activity (in words) ([2]; B. cinerea B05-10, data not shown): no statistically significant inhibitory activities
- inhibitory activity (in words) ([3]; B. cinerea Korea, data not shown): no statistically significant inhibitory activities

Substance: NH2-SIPDDDMGPAIYTPPSGSCGA PISKYDFQVLAKRPPPCRRPRLENTEDVTHTTRP-COOH [proAt20]
- growth inhibition ([1]; 5 μg mL^−1): 36.7%
- 50% growth inhibitory concentration (IC50) [1]: 11.32 ± 1.28 µg/mL
- concentration from which growth inhibition / statistically significant antifungal effect starts ([1]; A. brassicicola): 5 µg/mL
- growth inhibition ([2]; B05-10, 20 μg mL^−1): 62%
- concentration from which statistically significant antifungal effect starts ([2]; B. cinerea B05-10): 20 µg/mL
- concentration from which statistically significant antifungal effect starts ([3]; B. cinerea Korea): 20 µg/mL
- growth inhibition ([3]; 20 μg mL^−1): 64.8%
